Reference: patent US12600725B2 (Memorial Sloan-Kettering Cancer Center, priority 2013, dated 2026)
Where two headings read alike, the source gives them in different places.

Tests used:
97 kinases = assay: Kinase screen (Discoverx scanEDGE / KINOMEscan); type: binding; conditions: tested at 10 uM
[1] = test system: HER2 at the plasma membrane of SKBr3 cells; assay: Immunofluorescence of HER2 architecture at the plasma membrane; type: cell-based
Protocol: We next investigated the biological significance of the unique association of HER^2 with Grp94 at the plasma membrane of SKBr3 cells. Because the Grp94 inhibitors described here target the ATP-binding pocket of Grp94, they affect Grp94 chaperone activity. Therefore we hypothesized that Grp94 may act on HER^2 at the plasma membrane to stabilize the protein and to regulate its function.
Immunofluorescence. Cells were seeded and grown onto culture slides (BD Falcon) for 24 hrs. After washing with cold PBS, cells were fixed by treating at 4° C. for 20 min with 4% paraformaldehyde in PBS, permeabilized with 0.1% Triton X-100 in PBS containing 10% FBS for 10 min, and blocked with 2% BSA for 1 hr. After washing for four times with PBS, primary antibodies were added onto the chambers and cell were incubated overnight at 4° C., washed again with PBS followed by incubation with the secondary antibody for 1 hr at room temperature. Cell were washed and then mounted and observed under microscope (Leica Upright Confocal SP5). The primary antibodies used in the assay are against: HER^2 (Zymed, 28004), Grp94 (Stressgen, SPA-850), Hsp70 (Stressgen, SPA-810), LAMP1-FITC (Abcam, ab25406), EEA1 (Abcam, ab70521), 58K Golgi-FITC (Abcam, ab27043) and Calnexin (BD, 610523).

in vivo = assay: in vivo; design: species or system mouse
[2] = test system: EGFR overexpressing triple negative breast cancer cells; assay: Apoptosis (Annexin V / 7AAD, cleaved PARP) in triple negative breast cancer cells; type: cell-based
Protocol: The Grp94 inhibitors of the disclosure can be used to treat patients with EGFR overexpressing triple negative breast cancer. As shown in FIGS. 13a-c, EGFR overexpressing triple negative breast cancer cells are sensitive to the selective Grp94 inhibitor PU-WS13. The sensitivity of the EGFR overexpressing triple negative breast cancer cells was tested for the presence of apoptotic cells by Annexin V staining (13a, 13b) and by immunoblotting for the presence of cleaved PARP (13c). […] The Grp94 inhibitors of the disclosure can be used to treat patients with EGFR overexpressing pancreatic cancer. […]
Cell fractionation and immunoblotting. […] Protein concentrations were determined using BCA kit (Pierce) according to the manufacturer's instructions. […]
Cell cycle and apoptosis assessment. Cell cycle and apoptosis were assessed by flow cytometry after single staining with propidium iodide (PI, BD Pharmingen) or double staining with AnnexinV-FITC (BD Pharmingen) and 7AAD (BD Pharmingen), respectively. […] DNA content was measured by BD LSRII flow cytometer and cell further analyzed using program of cell cycle analysis in FloJo (Ashland, OR). […] Signals from FL1 and FL3 channels were collected by MACSQuant analyzer and further analyzed using FloJo. […]

[3] = test system: HER2-overexpressing breast cancer cells; assay: Cell cycle, PARP cleavage, apoptosis and Hsp70 induction in HER2-overexpressing breast cancer cells; type: cell-based

## CC(C)NCCCn1c(Sc2cc(Cl)cc(Cl)c2)nc2c(N)ncnc21 [PU-WS13]
97 kinases
  effect on the tested 97 kinases: no significant effect
[1]
  effect on HER2 architecture at the plasma membrane: disruption of the circular architecture of HER^2 at the plasma membrane
In vivo; 75 mg/kg ip
  AUC0-24h for stomach relative to tumor AUC0-24h: 1.4 fold
  AUC0-24h for the large intestine relative to tumor AUC0-24h: 2 fold
In vivo; female, nu/nu athymic, mouse, plasma, intraperitoneal, 75 mg/kg ip, read-out: PU-WS13 level in the plasma
  concentration at 2 h: 100 µM
In vivo; female, nu/nu athymic, mouse, plasma, 75 mg/kg ip, read-out: AUC0-24 h plasma
  AUC(0-t): 1260 µM·h
In vivo; female, nu/nu athymic, mouse, tumor, intraperitoneal, 75 mg/kg ip, read-out: PU-WS13 level in tumor
  concentration at 2 h: ~850 µM
In vivo; female, nu/nu athymic, mouse, tumor, intraperitoneal, single dose of 75 mg/kg, 24 h post-administration
  concentration at 24 h: 0.5 µM
In vivo; female, nu/nu athymic, mouse, tumor, 75 mg/kg ip, read-out: AUC0-24 h tumor
  AUC(0-t): 9130 µM·h
[2]
  sensitivity (apoptosis, cleaved PARP): sensitive
[3]
  accumulation of cells in sub-G1 phase, time first observed post-treatment: 1 to 2 h
  cells exhibiting markers of early- and late-stage apoptosis: substantial increase
  cleavage of PARP: cleavage of PARP
  feed-back heat shock response (Hsp70 induction): little to no Hsp70 induction
